Measured values published in the NIST ThermoML archive (doi:10.1021/je5008394).

Details: dynamic light scattering

COC(C)(C)C [2-methoxy-2-methylpropane]
thermal diffusivity [m2/s]
Details	Gas	Liquid
433.15 K, 5500 kPa	–	4.41e-08
433.15 K, 7000 kPa	–	4.49e-08
433.15 K, 8500 kPa	–	4.59e-08
433.15 K, 10000 kPa	–	4.72e-08
443.15 K, 101.33 kPa	–	4.18e-08
443.15 K, 2500 kPa	–	4.23e-08
443.15 K, 4000 kPa	–	4.26e-08
443.15 K, 5500 kPa	–	4.31e-08
443.15 K, 7000 kPa	–	4.39e-08
443.15 K, 8500 kPa	–	4.49e-08
443.15 K, 10000 kPa	–	4.61e-08
453.15 K, 101.33 kPa	2.36e-07	4.05e-08
453.15 K, 2500 kPa	–	4.15e-08
453.15 K, 4000 kPa	–	4.18e-08
453.15 K, 5500 kPa	–	4.23e-08
453.15 K, 7000 kPa	–	4.3e-08
453.15 K, 8500 kPa	–	4.4e-08
453.15 K, 10000 kPa	–	4.51e-08
455.15 K, 101.33 kPa	2.06e-07	–
457.15 K, 101.33 kPa	1.87e-07	–
458.15 K, 101.33 kPa	–	3.91e-08
458.15 K, 2500 kPa	–	4.11e-08
458.15 K, 4000 kPa	–	4.15e-08
458.15 K, 5500 kPa	–	4.2e-08
458.15 K, 7000 kPa	–	4.27e-08
458.15 K, 8500 kPa	–	4.36e-08
458.15 K, 10000 kPa	–	4.47e-08
459.15 K, 101.33 kPa	1.72e-07	–
461.15 K, 101.33 kPa	1.62e-07	–
463.15 K, 101.33 kPa	1.54e-07	3.86e-08
463.15 K, 2500 kPa	–	4.08e-08
463.15 K, 4000 kPa	–	4.11e-08
463.15 K, 5500 kPa	–	4.16e-08
463.15 K, 7000 kPa	–	4.23e-08
463.15 K, 8500 kPa	–	4.32e-08
463.15 K, 10000 kPa	–	4.43e-08
465.15 K, 101.33 kPa	1.47e-07	–
467.15 K, 101.33 kPa	1.38e-07	–
468.15 K, 101.33 kPa	–	3.66e-08
468.15 K, 2500 kPa	–	4.05e-08
468.15 K, 4000 kPa	–	4.09e-08
468.15 K, 5500 kPa	–	4.14e-08
468.15 K, 7000 kPa	–	4.2e-08
468.15 K, 8500 kPa	–	4.28e-08
468.15 K, 10000 kPa	–	4.38e-08
469.15 K, 101.33 kPa	1.31e-07	–
471.15 K, 101.33 kPa	1.22e-07	–
473.15 K, 101.33 kPa	1.14e-07	3.55e-08
473.15 K, 2500 kPa	–	4.02e-08
473.15 K, 4000 kPa	–	4.06e-08
473.15 K, 5500 kPa	–	4.11e-08
473.15 K, 7000 kPa	–	4.18e-08
473.15 K, 8500 kPa	–	4.25e-08
473.15 K, 10000 kPa	–	4.34e-08
475.15 K, 101.33 kPa	1.05e-07	3.47e-08
477.15 K, 101.33 kPa	9.7e-08	3.36e-08
479.15 K, 101.33 kPa	8.8e-08	3.36e-08
481.15 K, 101.33 kPa	7.8e-08	3.3e-08
483.15 K, 101.33 kPa	7e-08	3.22e-08
483.15 K, 4000 kPa	–	4.02e-08
483.15 K, 5500 kPa	–	4.07e-08
483.15 K, 7000 kPa	–	4.12e-08
483.15 K, 8500 kPa	–	4.19e-08
483.15 K, 10000 kPa	–	4.27e-08
485.15 K, 101.33 kPa	6.2e-08	3.07e-08
487.15 K, 101.33 kPa	5.6e-08	3.02e-08
489.15 K, 101.33 kPa	5e-08	2.95e-08
491.15 K, 101.33 kPa	4.3e-08	2.81e-08
493.15 K, 101.33 kPa	3.1e-08	2.73e-08
493.15 K, 4000 kPa	–	3.99e-08
493.15 K, 5500 kPa	–	4.03e-08
493.15 K, 7000 kPa	–	4.08e-08
493.15 K, 8500 kPa	–	4.14e-08
493.15 K, 10000 kPa	–	4.21e-08
